For data set [1], the system named is Gram+ & Gram−, Fungi, Virus, Parasites, Protozoan, HIV, Cancer cells. Particulars: Antimicrobial Peptide Database; cited from earlier work.
The subject of data set [2] is K. pneumonia, 700603 (Kp). Format: cell-based. Particulars: Mueller Hinton Broth.
A further data set deals with pUC19 plasmid DNA. Briefly: Plasmid DNA cleavage by reactive oxygen species. Particulars: 10 μM base pair pUC19, 100 nM M-chelate, 1 mM H2O2, 1 mM ascorbate, pH 7.4. The class given is biochemical.
The nature of data set [3]: Cytotoxicity toward human Huh7 liver cells.
The test system of another data set is E. coli, 25922 (Ec). As to conditions: 25922 (Ec).
Data set [4] concerns A. baumanii, BAA-747 (Ab). Particulars: BAA-747.
In data set [5] the test system is E. coli O157:H7, BAA-1883 (Ec F). As to conditions: O157:H7.
Data set [6] has as its system S. pneumoniae, 49619 (Sp). Particulars: 49619 (Sp).

By IC50 is commonly meant the midpoint of a concentration-inhibition curve.

Values after ≈ are worked out from the molar mass of the structure shown. Ends that are not written are not given here. Peptide text beside a SMILES is read from it. * marks the point of attachment. X4 = COCCOCCOCCOCCOCCOCCOCCOCCOCCOCCOCCOCCOCCOCCOCCOCCOCCOCCOCCOCCOCCOCCOCCOCCOCCOCCOCCOCCOCCOCCOCCOCCOCCOCCOCCOCCOCCOCCOCCOCCOCCOCCOCCOCCOCCOCCOCCOCCNC(=O)CCN1C(=O)CC(*)C1=O; X3 = COCCOCCOCCOCCOCCOCCOCCOCCOCCOCCOCCOCCOCCOCCOCCOCCOCCOCCOCCOCCOCCOCCOCCOCCOCCOCCOCCOCCOCCOCCOCCOCCOCCOCCOCCOCCNC(=O)CCN1C(=O)CC(*)C1=O; X2 = COCCOCCOCCOCCOCCOCCOCCOCCOCCOCCOCCOCCOCCOCCOCCOCCOCCOCCOCCOCCOCCOCCOCCOCCNC(=O)CCN1C(=O)CC(*)C1=O; X1 = COCCOCCOCCOCCOCCOCCOCCOCCOCCOCCOCCOCCNC(=O)CCN1C(=O)CC(*)C1=O

Regarding FVQWFSKFLGRILGGC [SEQ ID NO: 63], in data set [1], the activity against organisms entry is “active against Gram+ & Gram−, Virus, Parasites, Protozoan”.
Take “GGHGVRRFPWWWPFLRR [PEP 189, GGHGVRRFPWWWPFLRR]”: the “MIC Kp” value in data set [2] is 7.2 µM.
With GIRRIIRKIIHIIKKGGC [SEQ ID NO: 59], the activity against organisms result in data set [1] is recorded as “active against Gram+ & Gram−, Fungi GVR”.
Regarding `O=C([O-])CN(CCN(CC(=O)[O-])CC(=O)[O-])CC(=O)[O-].[Fe+3]` [Fe-EDTA], in the data set with pUC19 plasmid DNA, the “Linear (μM bp)” value is recorded as 0.30 μM bp, the “Nicked (μM bp)” value is given as 2.44 μM bp and the “Supercoiled (μM bp)” value came to 7.26 μM bp.
Consider VDKGSYLPRPTPPRPIYNRN [SEQ ID NO: 58], for which the activity against organisms result in data set [1] is recorded as “active against Gram+ & Gram−”.
In turn, `CC[C@H](C)[C@H](NC(=O)[C@H](Cc1c[nH]cn1)NC(=O)CNC(=O)CN)C(=O)N[C@@H](CCCNC(=N)N)C(=O)N[C@@H](CCCNC(=N)N)C(=O)N[C@H](C(=O)N[C@H](C(=O)N[C@@H](CCCNC(=N)N)C(=O)N[C@@H](CCCCN)C(=O)N[C@H](C(=O)N[C@H](C(=O)N[C@@H](Cc1c[nH]cn1)C(=O)N[C@H](C(=O)N[C@H](C(=O)N[C@@H](CCCCN)C(=O)N[C@@H](CCCCN)C(=O)NCC(=O)NCC(=O)N[C@@H](CSC1CC(=O)N(CCC(=O)NCCOCCOCCOCCOCCOCCOCCOCCOCCOCCOCCOCCOCCOCCOCCOCCOCCOCCOCCOCCOCCOCCOCCOCCOCCOCCOCCOCCOCCOCCOCCOCCOCCOCCOCCOCCOC)C1=O)C(=O)O)[C@@H](C)CC)[C@@H](C)CC)[C@@H](C)CC)[C@@H](C)CC)[C@@H](C)CC)[C@@H](C)CC` (stereo partly drawn) [PEP 318 PEG 36] (H-GGHIRRIIRKIIHIIKKGGC(X3)-OH; C-terminus assumed) yielded an IC50 in data set [3] above 200 µM. In addition, the “MIC Ec” value with E. coli, 25922 (Ec) is 15.8 µM (≈ 63.8 µg/mL). Besides, the “MIC Ab” value in data set [4] stood at 7.9 µM (≈ 31.9 µg/mL). Besides, in data set [5], the “MIC Ec F” value is 15.8 µM (≈ 63.8 µg/mL).
As for ILPWKWPWWPWRRGGC [SEQ ID NO: 64], the activity against organisms entry in data set [1] was “active against Gram+ & Gram−, Fungi, Virus, HIV”.
Take RFPWWWPFLRRGGC [SEQ ID NO: 60]: the activity against organisms entry in data set [1] is “active against Gram+ & Gram−, Fungi”.
On to GVRRFPWWWPFLRR [SEQ ID NO: 54], for which the activity against organisms result in data set [1] was “active against Gram+ & Gram−, Fungi”.
Take “Cu-GGHC-Amik fr3: copper complex of GGHC-Amikacin, fraction 3 (also: copper complex, amikacin conjugate, site not given here)”: in the data set with pUC19 plasmid DNA, the “Linear (μM bp)” value stood at 0.04 μM bp, the “Nicked (μM bp)” value is 6.46 μM bp and the “Supercoiled (μM bp)” value is given as 3.50 μM bp.
Turning to `CC[C@H](C)[C@H](NC(=O)[C@H](CCCCN)NC(=O)[C@H](Cc1c[nH]c2ccccc12)NC(=O)[C@H](CCCNC(=N)N)NC(=O)[C@H](CCCNC(=N)N)NC(=O)[C@H](Cc1c[nH]cn1)NC(=O)CNC(=O)CN)C(=O)N[C@H](C(=O)N[C@H](C(=O)N[C@H](C(=O)N[C@@H](CCCNC(=N)N)C(=O)N[C@@H](Cc1c[nH]c2ccccc12)C(=O)N[C@@H](CCCNC(=N)N)C(=O)N[C@@H](CCCNC(=N)N)C(=O)NCC(=O)NCC(=O)N[C@@H](CSC1CC(=O)N(CCC(=O)NCCOCCOCCOCCOCCOCCOCCOCCOCCOCCOCCOCCOCCOCCOCCOCCOCCOCCOCCOCCOCCOCCOCCOCCOCCOCCOCCOCCOCCOCCOCCOCCOCCOCCOCCOCCOC)C1=O)C(=O)O)[C@@H](C)CC)C(C)C)C(C)C` (stereo partly drawn) [PEP 314 PEG 36] (H-GGHRRWKIVVIRWRRGGC(X3)-OH; C-terminus assumed), the IC50 in data set [3] is above 200 µM. In data set [6], the “MIC Sp” value was 8.1 µM (≈ 32.1 µg/mL).
For RRWKIVVIRWRRGGC [SEQ ID NO: 62], the activity against organisms entry in data set [1] was “active against Gram+ & Gram−”.
As to GILAWKWAWWAWRRGGC [SEQ ID NO: 61], the activity against organisms result in data set [1] is reported as “active against Gram+ & Gram−, Fungi, Virus, HIV”.
Turning to `CC(C)C[C@H](NC(=O)[C@H](CCCNC(=N)N)NC(=O)[C@H](CCC(N)=O)NC(=O)[C@H](CCCCN)NC(=O)[C@@H](NC(=O)[C@H](CCCCN)NC(=O)[C@H](CCCNC(=N)N)NC(=O)[C@H](CC(C)C)NC(=O)[C@H](CC(N)=O)NC(=O)[C@H](Cc1ccccc1)NC(=O)[C@H](Cc1ccccc1)NC(=O)[C@H](CC(C)C)NC(=O)[C@H](CCCCN)NC(=O)[C@H](CCCNC(=N)N)NC(=O)[C@H](CCC(N)=O)NC(=O)CNC(=O)[C@H](Cc1c[nH]cn1)NC(=O)CNC(=O)CN)[C@@H](C)O)C(=O)NCC(=O)N[C@@H](Cc1c[nH]c2ccccc12)C(=O)N[C@@H](Cc1ccccc1)C(=O)N[C@@H](CC(N)=O)C(=O)N[C@@H](CCC(N)=O)C(=O)N[C@@H](CS)C(=O)O` [PEP 192], the “MIC Kp” value in data set [2] was found to be 5.3 µM (≈ 16 µg/mL).
Take GIGKFLHSAGKFGKAFVGEIMKS [SEQ ID NO: 57]: the activity against organisms result in data set [1] was “active against Gram+ & Gram−, Virus, Fungi, Parasites, Protozoan, HIV”.
Regarding `CC[C@H](C)[C@H](NC(=O)[C@H](Cc1c[nH]cn1)NC(=O)CNC(=O)CN)C(=O)N[C@@H](CCCNC(=N)N)C(=O)N[C@@H](CCCNC(=N)N)C(=O)N[C@H](C(=O)N[C@H](C(=O)N[C@@H](CCCNC(=N)N)C(=O)N[C@@H](CCCCN)C(=O)N[C@H](C(=O)N[C@H](C(=O)N[C@@H](Cc1c[nH]cn1)C(=O)N[C@H](C(=O)N[C@H](C(=O)N[C@@H](CCCCN)C(=O)N[C@@H](CCCCN)C(=O)NCC(=O)NCC(=O)N[C@@H](CSC1CC(=O)N(CCC(=O)NCCOCCOCCOCCOCCOCCOCCOCCOCCOCCOCCOCCOCCOCCOCCOCCOCCOCCOCCOCCOCCOCCOCCOCCOCCOCCOCCOCCOCCOCCOCCOCCOCCOCCOCCOCCOCCOCCOCCOCCOCCOCCOCCOCCOCCOCCOCCOCCOC)C1=O)C(=O)O)[C@@H](C)CC)[C@@H](C)CC)[C@@H](C)CC)[C@@H](C)CC)[C@@H](C)CC)[C@@H](C)CC` (stereo partly drawn) [PEP 318 PEG 48] (H-GGHIRRIIRKIIHIIKKGGC(X4)-OH; C-terminus assumed), the IC50 in data set [3] is above 200 µM. Besides, the “MIC Ab” value in data set [4] came out at 13.9 µM (≈ 63.5 µg/mL).
`CC/C(=C(\c1ccccc1)c1ccc(OCCN(C)C)cc1)c1ccccc1` [Tamoxifen, reference compound] came in with an IC50 in data set [3] of 42 µM.
Turning to GIRRIIRKIIHIIKK [SEQ ID NO: 53], the activity against organisms result in data set [1] was “active against Gram+ & Gram−, Fungi”.
With `CC[C@H](C)[C@H](NC(=O)[C@H](CCCCN)NC(=O)[C@H](Cc1c[nH]c2ccccc12)NC(=O)[C@H](CCCNC(=N)N)NC(=O)[C@H](CCCNC(=N)N)NC(=O)[C@H](Cc1c[nH]cn1)NC(=O)CNC(=O)CN)C(=O)N[C@H](C(=O)N[C@H](C(=O)N[C@H](C(=O)N[C@@H](CCCNC(=N)N)C(=O)N[C@@H](Cc1c[nH]c2ccccc12)C(=O)N[C@@H](CCCNC(=N)N)C(=O)N[C@@H](CCCNC(=N)N)C(=O)NCC(=O)NCC(=O)N[C@@H](CSC1CC(=O)N(CCC(=O)NCCOCCOCCOCCOCCOCCOCCOCCOCCOCCOCCOCCOC)C1=O)C(=O)O)[C@@H](C)CC)C(C)C)C(C)C` (stereo partly drawn) [PEP 314 PEG 12] (H-GGHRRWKIVVIRWRRGGC(X1)-OH; C-terminus assumed), the “MIC Ec” value against E. coli, 25922 (Ec) was 11 µM (≈ 31.9 µg/mL). Besides, the “MIC Ab” value in data set [4] amounted to 2.7 µM (≈ 7.84 µg/mL). In addition, the “MIC Ec F” value in data set [5] is 11 µM (≈ 31.9 µg/mL). Besides, the “MIC Sp” value in data set [6] was 11 µM (≈ 31.9 µg/mL).
For the compound “GGHGIRRIIRKIIHIIKK-NH2 (C-terminus assumed) [PEP 188, GGHGIRRIIRKIIHIIKK]”, in data set [2], the “MIC Kp” value was 1.9 µM.
With `CC[C@H](C)[C@H](NC(=O)[C@H](Cc1c[nH]cn1)NC(=O)CNC(=O)CN)C(=O)N[C@@H](CCCNC(=N)N)C(=O)N[C@@H](CCCNC(=N)N)C(=O)N[C@H](C(=O)N[C@H](C(=O)N[C@@H](CCCNC(=N)N)C(=O)N[C@@H](CCCCN)C(=O)N[C@H](C(=O)N[C@H](C(=O)N[C@@H](Cc1c[nH]cn1)C(=O)N[C@H](C(=O)N[C@H](C(=O)N[C@@H](CCCCN)C(=O)N[C@@H](CCCCN)C(=O)NCC(=O)NCC(=O)N[C@@H](CSC1CC(=O)N(CCC(=O)NCCOCCOCCOCCOCCOCCOCCOCCOCCOCCOCCOCCOCCOCCOCCOCCOCCOCCOCCOCCOCCOCCOCCOCCOC)C1=O)C(=O)O)[C@@H](C)CC)[C@@H](C)CC)[C@@H](C)CC)[C@@H](C)CC)[C@@H](C)CC)[C@@H](C)CC` (stereo partly drawn) [PEP 318 PEG 24] (H-GGHIRRIIRKIIHIIKKGGC(X2)-OH; C-terminus assumed), in data set [3], the IC50 was above 200 µM. In addition, the “MIC Ec” value against E. coli, 25922 (Ec) came to 9.1 µM (≈ 31.9 µg/mL). In addition, the “MIC Ab” value in data set [4] turned out to be 9.1 µM (≈ 31.9 µg/mL). Besides, the “MIC Ec F” value in data set [5] stood at 18.2 µM (≈ 63.9 µg/mL).
Turning to GRRWKIVVIRWRRGGC [SEQ ID NO: 67], the activity against organisms entry in data set [1] is reported as “active against Gram+ & Gram−”.
As to VRRFPWWWPFLRRGGC [SEQ ID NO: 66], in data set [1], the activity against organisms result is “active against Gram+ & Gram−, Fungi”.
For GILAWKWAWWAWRR [SEQ ID NO: 55], the activity against organisms result in data set [1] is “active against Gram+ & Gram−, Fungi, Virus, HIV”.
For the compound IRRIIRKIIHIIKKGGC [SEQ ID NO: 65], the activity against organisms result in data set [1] is listed as “active against Gram+ & Gram−, Fungi”.
On to GRLARIVVIRVAR [SEQ ID NO: 56], for which the activity against organisms result in data set [1] is on record as “active against Gram+ & Gram−”.
In the case of `NCC(=O)NCC(=O)N[C@@H](Cc1c[nH]cn1)C(=O)N1CCN(c2cc3c(cc2F)c(=O)c(C(=O)O)cn3C2CC2)CC1` [GGH CIPRO], in data set [5], the “MIC Ec F” value came to 8 µM (≈ 4.66 µg/mL).
In the case of `O=C([O-])CN1CCN(CC(=O)O)CCN(CC(=O)[O-])CCN(CC(=O)O)CC1.[Cu+2]` [Cu-DOTA], in the data set on pUC19 plasmid DNA, the “Linear (μM bp)” value turned out to be 0.09 μM bp, the “Nicked (μM bp)” value amounted to 1.31 μM bp and the “Supercoiled (μM bp)” value is 8.59 μM bp.

Values taken from patent US8933016B2, “Metallodrugs having improved pharmacological properties and methods of manufacture and use thereof” (priority 2012, dated 2015).
